Experimental data reported in publication PMC5876368, “Evaluation of a dimeric-cRGD peptide for targeted PET-CT imaging of peripheral angiogenesis in diabetic mice” (Scientific Reports, 2018).

Tests used:
αV β3 integrin = target: T1, αV β3 integrin (Mus musculus, UniProt O54890+P43406); assay: PET-CT imaging and gamma well counting of hindlimb uptake after femoral artery ligation, DM vs non-DM mice; type: in vivo; conditions: mice 1 week after femoral artery ligation
T1 construct: from tissue; host or cells: hindlimb skeletal muscle of live C57BL/6 mice (ischemic and non-ischemic, DM and non-DM)
T1 sequence (P43406 31-885 limits assumed): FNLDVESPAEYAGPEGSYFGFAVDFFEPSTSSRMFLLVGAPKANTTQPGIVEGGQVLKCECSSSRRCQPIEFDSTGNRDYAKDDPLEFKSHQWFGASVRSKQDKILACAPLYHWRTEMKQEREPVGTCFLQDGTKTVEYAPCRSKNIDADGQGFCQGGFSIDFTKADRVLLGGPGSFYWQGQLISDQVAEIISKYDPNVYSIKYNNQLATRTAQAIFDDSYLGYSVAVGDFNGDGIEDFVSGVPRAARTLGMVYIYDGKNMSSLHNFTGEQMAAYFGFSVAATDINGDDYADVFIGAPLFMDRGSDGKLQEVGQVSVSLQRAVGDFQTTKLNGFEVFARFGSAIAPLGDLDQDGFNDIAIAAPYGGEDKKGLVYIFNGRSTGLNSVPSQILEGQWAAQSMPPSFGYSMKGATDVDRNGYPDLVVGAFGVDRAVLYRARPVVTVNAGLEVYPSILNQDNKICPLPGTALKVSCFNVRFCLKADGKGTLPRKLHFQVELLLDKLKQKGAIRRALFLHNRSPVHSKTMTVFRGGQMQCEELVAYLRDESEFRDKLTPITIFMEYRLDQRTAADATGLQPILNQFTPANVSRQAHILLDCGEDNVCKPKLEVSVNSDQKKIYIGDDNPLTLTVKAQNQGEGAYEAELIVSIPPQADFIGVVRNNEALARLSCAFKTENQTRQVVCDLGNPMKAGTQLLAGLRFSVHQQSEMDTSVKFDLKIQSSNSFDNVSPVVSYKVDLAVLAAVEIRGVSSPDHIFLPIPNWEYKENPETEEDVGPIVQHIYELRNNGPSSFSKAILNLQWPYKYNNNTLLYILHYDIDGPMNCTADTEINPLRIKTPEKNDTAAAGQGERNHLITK
T1 sequence (P43406 887-1044 partner limits assumed): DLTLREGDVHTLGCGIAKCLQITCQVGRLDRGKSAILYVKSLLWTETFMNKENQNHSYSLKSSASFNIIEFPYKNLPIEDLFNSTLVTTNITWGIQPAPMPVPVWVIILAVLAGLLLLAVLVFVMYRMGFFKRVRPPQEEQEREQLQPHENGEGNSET
T1 sequence (O54890 26-787): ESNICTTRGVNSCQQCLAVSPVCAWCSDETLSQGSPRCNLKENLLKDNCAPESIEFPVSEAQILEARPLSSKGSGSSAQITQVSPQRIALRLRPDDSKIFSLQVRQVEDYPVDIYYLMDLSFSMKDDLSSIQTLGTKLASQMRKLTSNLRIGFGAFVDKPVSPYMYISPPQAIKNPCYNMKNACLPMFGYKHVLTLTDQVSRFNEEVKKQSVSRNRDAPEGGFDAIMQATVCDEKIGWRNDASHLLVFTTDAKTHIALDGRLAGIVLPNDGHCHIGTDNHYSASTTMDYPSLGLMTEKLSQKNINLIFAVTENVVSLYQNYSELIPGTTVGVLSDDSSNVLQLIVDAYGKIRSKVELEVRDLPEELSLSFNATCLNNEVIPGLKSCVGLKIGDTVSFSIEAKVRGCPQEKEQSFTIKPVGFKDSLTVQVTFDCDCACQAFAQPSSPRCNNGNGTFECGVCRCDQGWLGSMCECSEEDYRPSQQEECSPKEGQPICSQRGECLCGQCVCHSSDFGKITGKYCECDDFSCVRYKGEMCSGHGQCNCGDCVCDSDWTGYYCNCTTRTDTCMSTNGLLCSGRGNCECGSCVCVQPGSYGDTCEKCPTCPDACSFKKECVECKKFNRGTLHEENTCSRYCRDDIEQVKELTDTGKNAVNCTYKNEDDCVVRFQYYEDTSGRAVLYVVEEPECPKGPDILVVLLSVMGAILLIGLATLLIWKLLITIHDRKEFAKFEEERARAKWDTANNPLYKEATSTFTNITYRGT
Protocol: All animals underwent hindlimb occlusion of the right femoral artery and a sham operation on the left hindlimb, following previously-described procedures. Briefly, a small incision was made on the right leg to expose the femoral vasculature, and dual ligation of the femoral artery was performed distal to the profundus branch to induce unilateral hindlimb ischemia. All mice were allowed to recover for 7 days after surgery.
One week after occlusion, DM and non-DM mice (n = 15) were injected with 6.81 ± 0.536 MBq of ^64Cu-NOTA-PEG4-cRGD2 via the jugular vein and 60 minutes later in vivo microPET-CT imaging was performed using a small animal dedicated Inveon system (Siemens Healthcare USA). An additional group of non-diabetic mice (n = 4) was injected with 7.21 ± 2.31 MBq of ^64Cu-acetate to study differential organ biodistribution of ^64Cu-NOTA-PEG4-cRGD2. […]
The microPET and microCT images were reconstructed using the OSEM/3D algorithm (Siemens Healthcare USA) and the cone-beam technique (Cobra Exim), respectively. MicroPET images were fused with microCT images and quantified using a semiautomated approach developed and evaluated previously. […] To validate the accuracy of the quantitative targeted imaging approach, image-derived results were compared with the gamma well counting analysis of the corresponding tissue samples. […]

[1] = Biodistribution and clearance in mice (gamma well counting and PET-CT); type: in vivo; conditions: one hour after jugular vein injection, gamma well counting
Protocol: One week after occlusion, 5 groups of animals were injected with 6.81 ± 0.536 MBq of ^64Cu-NOTA-PEG4-cRGD2 via the jugular vein and at various time points (30 min n = 3, 1 hr n = 3, 2 hr n = 3, 4 hr n = 3, and 24 hr n = 2), different organs were excised and subjected to gamma well counting. The mass and radioactivity of tissue sections were assessed with a Voyager Pro. (Ohaus, USA) and Wizard2 gamma well counter (PerkinElmer, USA) respectively. The ^64Cu signal was then corrected to account for background radioactivity, radioactive decay of the samples, and tissue weight.
One week after occlusion, DM and non-DM mice (n = 15) were injected with 6.81 ± 0.536 MBq of ^64Cu-NOTA-PEG4-cRGD2 via the jugular vein and 60 minutes later in vivo microPET-CT imaging was performed using a small animal dedicated Inveon system (Siemens Healthcare USA). […]
Skeletal muscles from both the ischemic and non-ischemic hindlimbs were excised and separated into distal and proximal sections based on the location of the ligature in the ischemic limb and anatomical landmarks in the non-ischemic limb. The mass and radioactivity of tissue sections were assessed with a Voyager Pro. […] The ^64Cu signal was then corrected to account for background radioactivity, radioactive decay of the samples, and tissue weight.

retention in ischemic relative to non-ischemic hindlimb (αV β3 integrin): comparable accumulation in both limbs | organ uptake in liver, gallbladder, kidneys and intestines [1]: > 20 %I.D./g
SMILES: CC(=O)[O-].CC(=O)[O-].[64Cu+2] [^64Cu-acetate]
